Measurements from PubChem BioAssay AID1288 (Columbia University Molecular Screening Center, 2008).
Activity calls are given as the source filed them. The rule behind the calls is not given here.

Test: E-selectin induction blockers, endothelial cells – imaging, retest plus dose response, cell count, confirmation (AID 1288);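 note: 0% = stimulated vehicle wells and 100% = unstimulated vehicle wells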
Details: human endothelial cells, TNFa-induced E-selectin, imaging; at 2 µM; hits give high values

CC(=O)Oc1cccc(N2C(=O)C3CC=C(Cl)CC3C2=O)c1 (stereo not given)
inhibition: 31.6% (inactive)

CC(=O)Nc1ccccc1Sc1ccc2c3c(cccc13)C(=O)N(c1ccc(C)cc1)C2=O
inhibition: -0.84% (inactive)

CC1CC1c1ccc(/C=C(\C#N)C(=O)Nc2ccc(Cl)cc2)o1 (stereo not given)
inhibition: 7.94% (inactive)

Cc1[nH]nc2c1C1(C(=O)N(Cc3ccc(Cl)cc3)c3ccccc31)C(C#N)=C(N)O2 (stereo not given)
inhibition: 10.5% (inactive)

Cc1cc(N2CCCCC2)nc(NCc2ccccc2)n1
inhibition: 36.1% (inactive)

Cn1nnnc1SCc1nnc(-c2ccc(Cl)cc2)o1
inhibition: 6.53% (inactive)

COc1ccc(OCC2CNC(=O)O2)cc1 (stereo not given)
inhibition: 0.97% (inactive)

CC(C)c1c(O)cc(-c2ccncc2)n(-c2ccc(Cl)cc2)c1=O
inhibition: 3.17% (inactive)

COc1cccc(S(=O)(=O)Nc2ccc(C(=O)N3CCN(C(=O)c4ccco4)CC3)cc2)c1
inhibition: 31.3% (inactive)

CCOC(=O)C1CCCN(Cc2ccccc2F)C1 (stereo not given)
inhibition: 30.6% (inactive)

COc1ccc(OC)c(CN2CCN(C(=O)COc3cccc(C)c3)CC2)c1
inhibition: 9.14% (inactive)

CCOc1ccc(NC(=O)C2CCC(N3C(=O)C4CC=CCC4C3=O)CC2)cc1 (stereo not given)
inhibition: 2.62% (inactive)

O=c1cc(-c2ccccc2)c2ccccc2[nH]1
inhibition: 35% (inactive)

CCOC(=O)N1CCC(N(CCOC)C(=O)Nc2ccc(Cl)cc2)CC1
inhibition: 2.12% (inactive)

CC1=Nc2ccccc2/C1=C/c1c(N)n2c(S(=O)(=O)CC(C)C)nsc2nc1=O
inhibition: 2.29% (inactive)

Cc1ccc(NC(=O)c2ccc(OC(=O)CCN3C(=O)c4ccccc4C3=O)cc2)cc1
inhibition: 42.6% (inactive)

COc1ccc(-c2n[nH]c(C(F)(F)F)c2-c2cc3ccccc3o2)c(O)c1
inhibition: 3.2% (inactive)

C=CCNC(=O)/C=C/c1cccs1
inhibition: -0.12% (inactive)

O=C1CC(c2ccccc2)CC2=C1CN(C1CCCCC1)CN2 (stereo not given)
inhibition: 10.2% (inactive)

CC(=O)c1ccc(NC(=O)Nc2ccc([N+](=O)[O-])cc2C)cc1
inhibition: 48% (inactive)

CN(C)c1ccc(NC(=O)COC(=O)Cn2nnc3ccccc32)cc1
inhibition: 0.53% (inactive)

Cc1cc(NCCN2CCCCC2)n2c(nc3ccccc32)c1C#N
inhibition: 11.7% (inactive)

COc1cccc(CNc2ccc(F)c(Cl)c2)c1
inhibition: 39.9% (inactive)

Cc1c(NC(=O)CN2CC(C)OC(C)C2)c(=O)n(-c2ccccc2)n1C (stereo not given)
inhibition: 35.8% (inactive)

c1ccc(Nc2nc3ccccc3n3cnnc23)cc1
inhibition: 6.89% (inactive)

CCN(CC)S(=O)(=O)c1ccc(NC(=O)CSc2nnc(-c3ccc(F)cc3)o2)cc1
inhibition: 1.25% (inactive)

CCOC(=O)N1CCN(C(=O)COc2cccc3c2CCN(Cc2cccc(C)c2)C3=O)CC1
inhibition: 8.76% (inactive)

COCCn1c(SCC(=O)c2ccc(Cl)cc2)nnc1C(C)C
inhibition: -5.2% (inactive)

COc1ccc(CCn2c(=S)[nH]c3cc(C(=O)NCc4ccco4)ccc3c2=O)cc1OC
inhibition: 11% (inactive)

COc1ccc(Br)cc1C(=O)O
inhibition: -3.94% (inactive)

CC(C)C(=O)Nc1cc(=O)[nH]c2ncnn12
inhibition: 10.9% (inactive)

COc1ccccc1CC1(C)NC(=O)N(CC(=O)N2CC(C)OC(C)C2)C1=O (stereo not given)
inhibition: 9.89% (inactive)

Cc1nc2oc(C(=O)c3ccccc3)c(N)c2c2c1COC(C)(C)C2
inhibition: 0.22% (inactive)

Cc1ccc(-n2c(SCC(=O)Nc3ccc4c(c3)OCCO4)nnc2-c2ccco2)cc1
inhibition: 5.17% (inactive)

CCOc1ccc(NCc2nc3ccccc3n2CCOc2ccccc2)cc1
inhibition: 11.6% (inactive)

O=C(NN=C1CCN(Cc2ccccc2)CC1)c1ccccc1
inhibition: 9.36% (inactive)

COC(=O)c1nnn(-c2ccc(Cl)c(Cl)c2)c1C(=O)OC
inhibition: 11.3% (inactive)

COc1ccc(C(=O)CN2C(=O)NC3(CCCc4ccccc43)C2=O)cc1OC (stereo not given)
inhibition: 7.22% (inactive)

CC(C)(C)OC(=O)NNC(=O)NC12CC3CC(CC(C3)C1)C2
inhibition: 3.2% (inactive)

O=C1NCCCc2c1oc1cc(Br)c(O)c(Br)c21
inhibition: 15.8% (inactive)
